How the values were obtained:
HBV = assay: Determination of HBV DNA from the supernatants of HepAD38 cells (anti-HBV activity); format: cell-based, hepatitis B virus; conditions: Hepatitis B virus, 144 h; HBV DNA in HepAD38 supernatant at day 6; read-out: Cell Activity (EC50)
Outline: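 EC50 values were obtained by non-linear regression of HBV DNA copy numbers measured by qPCR against pCH-9/3091 plasmid standards. The DNA came from filtered supernatants collected on day 6. Before that, tetracycline-withdrawn HepAD38 cells had been exposed to serial half-log compound dilutions, with tetracycline-treated cells as the non-producing control.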

HBV core protein = HBV core protein (UniProt P03146); format: biochemical; conditions: read-out: Assembly Activity (IC50); BODIPY-FL labelled core protein, assembly started with NaCl, read after 6 min
Sequence of HBV core protein (P03146 whole entry, looked up, the tested form may be a part): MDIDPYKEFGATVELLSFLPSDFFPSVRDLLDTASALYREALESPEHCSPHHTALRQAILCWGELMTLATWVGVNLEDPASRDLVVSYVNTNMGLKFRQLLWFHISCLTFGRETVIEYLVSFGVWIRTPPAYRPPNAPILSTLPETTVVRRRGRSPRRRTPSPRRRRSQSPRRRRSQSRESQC
Outline: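 Compounds tested at 8 concentrations in 0.5-log steps from 100, 31.6 or 10 μM against 1.0–2.0 μM BODIPY-FL-labelled Cys150 core dimers (residues 1–149), 50 mM HEPES pH 7.5. NaCl ([…] final) triggered assembly; quenching read at 6 min, 477/525 nm, with 2.5 M and 0 M NaCl as controls; EC50 by nonlinear fit.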

Row | SMILES | EC50 (HBV) [µM] | IC50 (HBV core protein) [µM]
1 | CC(CO)CNc1nc2c(s1)CN(C(=O)c1cc3ccccc3[nH]1)CC2 (stereo not shown) [Example 217, 3-{[5-(1H-indole-2-carbonyl)-4H,5H,6H,7H-[1,3]thiazolo[5,4-c]pyridin-2-yl]amino}-2-methylpropan-1-ol] | < 1 | < 5
2 | O=C(c1cc2c(F)cc(F)cc2[nH]1)N1CCc2nc(NC3(CO)CCC3)sc2C1 [Example 218, (1-{[5-(4,6-difluoro-1H-indole-2-carbonyl)-4H,5H,6H,7H-[1,3]thiazolo[5,4-c]pyridin-2-yl]amino}cyclobutyl)methanol] | < 1 | 5 to 10
3 | CC(C)(C)OC(=O)N1CCC(O)(CNc2nc3c(s2)CN(C(=O)c2cc4ccccc4[nH]2)CC3)CC1 [Example 219, tert-butyl 4-hydroxy-4-({[5-(1H-indole-2-carbonyl)-4H,5H,6H,7H-[1,3]thiazolo[5,4-c]pyridin-2-yl]amino}methyl)piperidine-1-carboxylate] | < 1 | 5 to 10
4 | Nc1nc2c(s1)CN(C(=O)c1[nH]c3ccccc3c1F)CC2 [Example 220, 5-(3-fluoro-1H-indole-2-carbonyl)-4H,5H,6H,7H-[1,3]thiazolo[5,4-c]pyridin-2-amine] | 1 to 10 | < 100
5 | CC(C)(CO)CNc1nc2c(s1)CN(C(=O)c1cc3ccccc3[nH]1)CC2 [Example 221, 3-{[5-(1H-indole-2-carbonyl)-4H,5H,6H,7H-[1,3]thiazolo[5,4-c]pyridin-2-yl]amino}-2,2-dimethylpropan-1-ol] | < 1 | < 5
6 | O=C(c1cc2c(F)c(F)ccc2[nH]1)N1CCc2nc(NC3(CO)CCC3)sc2C1 [Example 222, (1-{[5-(4,5-difluoro-1H-indole-2-carbonyl)-4H,5H,6H,7H-[1,3]thiazolo[5,4-c]pyridin-2-yl]amino}cyclobutyl)methanol] | < 1 | < 5
7 | O=C(c1cc2c(Cl)cc(F)cc2[nH]1)N1CCc2nc(NC3(CO)CCC3)sc2C1 [Example 223, (1-{[5-(4-chloro-6-fluoro-1H-indole-2-carbonyl)-4H,5H,6H,7H-[1,3]thiazolo[5,4-c]pyridin-2-yl]amino}cyclobutyl)methanol] | < 1 | < 5
8 | O=C(c1cc2c(Cl)cccc2[nH]1)N1CCc2nc(NC3(CO)CCC3)sc2C1 [Example 224, (1-{[5-(4-chloro-1H-indole-2-carbonyl)-4H,5H,6H,7H-[1,3]thiazolo[5,4-c]pyridin-2-yl]amino}cyclobutyl)methanol] | < 1 | < 5
9 | O=C(c1cc2ccccc2[nH]1)N1CCc2nc(NCC(F)(F)CO)sc2C1 [Example 225, 2,2-difluoro-3-{[5-(1H-indole-2-carbonyl)-4H,5H,6H,7H-[1,3]thiazolo[5,4-c]pyridin-2-yl]amino}propan-1-ol] | < 1 | < 5
10 | O=C(c1cc2ccccc2[nH]1)N1CCc2nc(NCC(CO)CC3CCOCC3)sc2C1 (stereo not shown) [Example 226, 3-{[5-(1H-indole-2-carbonyl)-4H,5H,6H,7H-[1,3]thiazolo[5,4-c]pyridin-2-yl]amino}-2-[(oxan-4-yl)methyl]propan-1-ol] | < 1 | < 5
11 | O=C(c1cc2ccccc2[nH]1)N1CCc2nc(NCC(CO)CC3CCC3)sc2C1 (stereo not shown) [Example 227, 2-(cyclobutylmethyl)-3-{[5-(1H-indole-2-carbonyl)-4H,5H,6H,7H-[1,3]thiazolo[5,4-c]pyridin-2-yl]amino}propan-1-ol] | < 1 | < 100
12 | CC(C)[C@H](N)C(=O)OCC1(CNc2nc3c(s2)CN(C(=O)c2cc4c(Cl)cc(F)cc4[nH]2)CC3)CC1 [Example 229, [1-({[5-(4-chloro-6-fluoro-1H-indole-2-carbonyl)-4H,5H,6H,7H-[1,3]thiazolo[5,4-c]pyridin-2-yl]amino}methyl)cyclopropyl]methyl (2S)-2-amino-3-methylbutanoate] | < 1 | < 5
13 | O=C(c1cc2ccccc2[nH]1)N1CCc2nc(NC3(CO)CC3)sc2C1 [Example 230, (1-{[5-(1H-indole-2-carbonyl)-4H,5H,6H,7H-[1,3]thiazolo[5,4-c]pyridin-2-yl]amino}cyclopropyl)methanol] | < 1 | < 5
14 | COC1COCCC1Nc1nc2c(s1)CN(C(=O)c1cc3ccccc3[nH]1)CC2 (stereo not shown) [Example 231, 5-(1H-indole-2-carbonyl)-N-(3-methoxyoxan-4-yl)-4H,5H,6H,7H-[1,3]thiazolo[5,4-c]pyridin-2-amine] | < 1 | 5 to 10
15 | CC(=O)N1CCOCC1CNc1nc2c(s1)CN(C(=O)c1cc3ccccc3[nH]1)CC2 (stereo not shown) [Example 232, 1-[3-({[5-(1H-indole-2-carbonyl)-4H,5H,6H,7H-[1,3]thiazolo[5,4-c]pyridin-2-yl]amino}methyl)morpholin-4-yl]ethan-1-one] | < 1 | 5 to 10
16 | O=C(CNc1nc2c(s1)CN(C(=O)c1cc3ccccc3[nH]1)CC2)N1CCCCC1 [Example 233, 2-{[5-(1H-indole-2-carbonyl)-4H,5H,6H,7H-[1,3]thiazolo[5,4-c]pyridin-2-yl]amino}-1-(piperidin-1-yl)ethan-1-one] | 1 to 10 | < 100
17 | O=C(c1cc2cc(F)c(Cl)cc2[nH]1)N1CCc2nc(NCC3(CO)CC3)sc2C1 [Example 234, [1-({[5-(6-chloro-5-fluoro-1H-indole-2-carbonyl)-4H,5H,6H,7H-[1,3]thiazolo[5,4-c]pyridin-2-yl]amino}methyl)cyclopropyl]methanol] | < 1 | < 5
18 | CC(C)[C@H](N)C(=O)OCC1(CNc2nc3c(s2)CN(C(=O)c2cc4ccccc4[nH]2)CC3)CC1 [Example 235, [1-({[5-(1H-indole-2-carbonyl)-4H,5H,6H,7H-[1,3]thiazolo[5,4-c]pyridin-2-yl]amino}methyl)cyclopropyl]methyl (2S)-2-amino-3-methylbutanoate] | < 1 | < 5
19 | CCc1ccc(F)c2[nH]c(C(=O)N3CCc4nc(NCC5(CO)CC5)sc4C3)cc12 [Example 236, [1-({[5-(4-ethyl-7-fluoro-1H-indole-2-carbonyl)-4H,5H,6H,7H-[1,3]thiazolo[5,4-c]pyridin-2-yl]amino}methyl)cyclopropyl]methanol] | < 1 | < 5
20 | O=C(c1cc2ccccc2[nH]1)N1CCc2nc(NCC3(CO)CCOCC3)sc2C1 [Example 237, [4-({[5-(1H-indole-2-carbonyl)-4H,5H,6H,7H-[1,3]thiazolo[5,4-c]pyridin-2-yl]amino}methyl)oxan-4-yl]methanol] | < 1 | < 5
21 | CC(C)(C)OC(=O)N1CCOCC1CNc1nc2c(s1)CN(C(=O)c1cc3ccccc3[nH]1)CC2 (stereo not shown) [Example 238, tert-butyl 3-({[5-(1H-indole-2-carbonyl)-4H,5H,6H,7H-[1,3]thiazolo[5,4-c]pyridin-2-yl]amino}methyl)morpholine-4-carboxylate] | 1 to 10 | < 100
22 | O=C(c1cc2cc(F)c(Cl)cc2[nH]1)N1CCc2nc(NCC3CCOC3)sc2C1 (stereo not shown) [Example 239, 5-(6-chloro-5-fluoro-1H-indole-2-carbonyl)-N-[(oxolan-3-yl)methyl]-4H,5H,6H,7H-[1,3]thiazolo[5,4-c]pyridin-2-amine] | < 1 | < 5
23 | O=C(c1cc2ccccc2[nH]1)N1CCc2nc(NC[C@@H]3COC[C@@H]3O)sc2C1 [Example 241, (3R,4R)-4-({[5-(1H-indole-2-carbonyl)-4H,5H,6H,7H-[1,3]thiazolo[5,4-c]pyridin-2-yl]amino}methyl)oxolan-3-ol] | < 1 | < 5
24 | CC(=O)N1CCOC(CNc2nc3c(s2)CN(C(=O)c2cc4ccccc4[nH]2)CC3)C1 (stereo not shown) [Example 242, 1-[2-({[5-(1H-indole-2-carbonyl)-4H,5H,6H,7H-[1,3]thiazolo[5,4-c]pyridin-2-yl]amino}methyl)morpholin-4-yl]ethan-1-one] | < 1 | 5 to 10
25 | CC(O)c1cccc2[nH]c(C(=O)N3CCc4nc(NCC5CCOC5)sc4C3)cc12 (stereo not shown) [Example 244, 1-[2-(2-{[(oxolan-3-yl)methyl]amino}-4H,5H,6H,7H-[1,3]thiazolo[5,4-c]pyridine-5-carbonyl)-1H-indol-4-yl]ethan-1-ol] | < 1 | < 100
26 | O=C(c1cc2c(CO)cccc2[nH]1)N1CCc2nc(NCC3CCOC3)sc2C1 (stereo not shown) [Example 245, [2-(2-{[(oxolan-3-yl)methyl]amino}-4H,5H,6H,7H-[1,3]thiazolo[5,4-c]pyridine-5-carbonyl)-1H-indol-4-yl]methanol] | < 1 | < 100
27 | COC1(CNc2nc3c(s2)CN(C(=O)c2cc4ccccc4[nH]2)CC3)CCOC1 (stereo not shown) [Example 246, 5-(1H-indole-2-carbonyl)-N-[(3-methoxyoxolan-3-yl)methyl]-4H,5H,6H,7H-[1,3]thiazolo[5,4-c]pyridin-2-amine] | < 1 | < 5
28 | CC(Nc1nc2c(s1)CN(C(=O)c1cc3ccccc3[nH]1)CC2)C1CCOC1 (stereo not shown) [Example 247, 5-(1H-indole-2-carbonyl)-N-[1-(oxolan-3-yl)ethyl]-4H,5H,6H,7H-[1,3]thiazolo[5,4-c]pyridin-2-amine] | < 1 | < 5
29 | CCc1cc(F)cc2[nH]c(C(=O)N3CCc4nc(NCC5(CO)CC5)sc4C3)cc12 [Example 248, [1-({[5-(4-ethyl-6-fluoro-1H-indole-2-carbonyl)-4H,5H,6H,7H-[1,3]thiazolo[5,4-c]pyridin-2-yl]amino}methyl)cyclopropyl]methanol] | < 1 | < 5
